These results are taken from ChEMBL document CHEMBL4619795, “Establishing the Structure-Activity Relationship of Daptomycin” (ACS Med Chem Lett, 2020).

Assay type in all cases: functional
Experiment [1] relates to Enterococcus. Nature of the experiment: Antibacterial activity against Enterococcus 60 assessed as bacterial growth inhibition in presence of 50 ug/ml calcium ions by CLSI protocol based broth microdilution method. (Dilution methods test growth across graded concentrations, often in twofold steps.)
The subject of experiment [2] is Staphylococcus aureus. Nature of the experiment: Antibacterial activity against methicillin-resistant Staphylococcus aureus 88 assessed as bacterial growth inhibition in presence of 50 ug/ml calcium ions by CLSI protocol based broth microdilution method.
For experiment [3], the system named is Enterococcus. Nature of the experiment: Antibacterial activity against Enterococcus 6 assessed as bacterial growth inhibition in presence of 50 ug/ml calcium ions by CLSI protocol based broth microdilution method.
The test system of experiment [4] is Staphylococcus aureus. Nature of the experiment: Antibacterial activity against methicillin-resistant Staphylococcus aureus 14 assessed as bacterial growth inhibition in presence of 50 ug/ml calcium ions by CLSI protocol based broth microdilution method.
Experiment [5] deals with Staphylococcus aureus. Nature of the experiment: Antibacterial activity against Staphylococcus aureus ATCC 29213 assessed as bacterial growth inhibition in presence of 50 ug/ml calcium ions by CLSI protocol based broth microdilution method.
Experiment [6] has as its system Staphylococcus aureus. Nature of the experiment: Antibacterial activity against methicillin-resistant Staphylococcus aureus 11 assessed as bacterial growth inhibition in presence of 50 ug/ml calcium ions by CLSI protocol based broth microdilution method.
Experiment [7] has as its system Staphylococcus aureus. Nature of the experiment: Antibacterial activity against methicillin-resistant Staphylococcus aureus 86 assessed as bacterial growth inhibition in presence of 50 ug/ml calcium ions by CLSI protocol based broth microdilution method.
In experiment [8] the test system is Enterococcus faecalis. The experiment can be described thus: Antibacterial activity against Streptococcus faecalis assessed as bacterial growth inhibition in presence of 50 ug/ml calcium ions by CLSI protocol based broth microdilution method.
The test system of experiment [9] is Enterococcus faecalis. The experiment can be described thus: Antibacterial activity against Enterococcus faecalis ATCC 29212 assessed as bacterial growth inhibition in presence of 50 ug/ml calcium ions by CLSI protocol based broth microdilution method.

Turning to `CCCCCCCCCC(=O)N[C@@H](Cc1c[nH]c2ccccc12)C(=O)N[C@@H](CC(N)=O)C(=O)N[C@@H](CC(=O)O)C(=O)N[C@@H]1C(=O)NCC(=O)N[C@@H](CCCCN)C(=O)N[C@@H](CC(=O)O)C(=O)N[C@H](C)C(=O)N[C@@H](CC(=O)O)C(=O)NCC(=O)N[C@H](CO)C(=O)N[C@@H]([C@@H](C)CC(=O)O)C(=O)N[C@@H](CC(=O)c2ccccc2N)C(=O)O[C@@H]1C`, the MIC – broadly, the smallest concentration in the dilution series that meets the test's criterion for growth inhibition – is 16 µg/mL in experiment [1]; 1 µg/mL in experiment [2]; ≥ 32 µg/mL in experiment [3]; ≥ 32 µg/mL in [4]; 1 µg/mL in [5]; 16 µg/mL in experiment [6]. Moreover, the MIC in experiment [7] was 1 µg/mL; in [8] it was 8 µg/mL; in experiment [9] it was ≥ 32 µg/mL.
For `CCCCCCCCCC(=O)N[C@@H](Cc1ccncc1)C(=O)N[C@@H](CC(N)=O)C(=O)N[C@@H](CC(=O)O)C(=O)N[C@@H]1C(=O)NCC(=O)N[C@@H](CCCN)C(=O)N[C@@H](CC(=O)O)C(=O)N[C@H](C)C(=O)N[C@@H](CC(=O)O)C(=O)NCC(=O)N[C@H](CO)C(=O)N[C@@H]([C@@H](C)CC(=O)O)C(=O)N[C@@H](CC(=O)c2ccccc2N)C(=O)O[C@@H]1C`, the MIC in experiment [1], in experiment [2], in [3], in experiment [4], in experiment [5] and in experiment [6] was ≥ 32 µg/mL in each case. The MIC in experiment [7], in [8] and in experiment [9] was ≥ 32 µg/mL in each case.
`CCCCCCCCCC(=O)N[C@@H](Cc1c[nH]c2ccccc12)C(=O)N[C@@H](CC(N)=O)C(=O)N[C@@H](CC(=O)O)C(=O)N[C@@H]1C(=O)NCC(=O)N[C@@H](C(C)C)C(=O)N[C@@H](CC(=O)O)C(=O)N[C@H](C)C(=O)N[C@@H](CC(=O)O)C(=O)NCC(=O)N[C@H](CO)C(=O)N[C@@H]([C@@H](C)CC(=O)O)C(=O)N[C@@H](CC(=O)c2ccccc2N)C(=O)O[C@@H]1C`: the MIC is ≥ 32 µg/mL in experiment [1]; 8 µg/mL in experiment [2]; ≥ 32 µg/mL in experiment [3]; ≥ 32 µg/mL in experiment [4]; 8 µg/mL in experiment [5]; ≥ 32 µg/mL in [6]. Moreover, the MIC in experiment [7] was 8 µg/mL; in [8] it was ≥ 32 µg/mL; in [9] it was ≥ 32 µg/mL.
Regarding `CCCCCCCCCC(=O)N[C@@H](Cc1c[nH]c2ccccc12)C(=O)N[C@@H](CC(N)=O)C(=O)N[C@@H](CC(=O)O)C(=O)N[C@@H]1C(=O)NCC(=O)N[C@@H](CCCN)C(=O)N[C@@H](C)C(=O)N[C@H](C)C(=O)N[C@@H](CC(=O)O)C(=O)NCC(=O)N[C@H](CO)C(=O)N[C@@H]([C@@H](C)CC(=O)O)C(=O)N[C@@H](CC(=O)c2ccccc2N)C(=O)O[C@@H]1C`, the MIC in experiment [1], in [2], in experiment [3], in [4], in experiment [5] and in experiment [6] was ≥ 64 µg/mL throughout. Moreover, the MIC in [7], in [8] and in [9] was ≥ 64 µg/mL in each case.
Regarding `CCCCCCCCCC(=O)N[C@@H](Cc1c[nH]c2ccccc12)C(=O)N[C@@H](CC(N)=O)C(=O)N[C@@H](CC(=O)O)C(=O)N[C@@H]1C(=O)NCC(=O)N[C@@H](CC(=O)O)C(=O)N[C@@H](CC(=O)O)C(=O)N[C@H](C)C(=O)N[C@@H](CC(=O)O)C(=O)NCC(=O)N[C@H](CO)C(=O)N[C@@H]([C@@H](C)CC(=O)O)C(=O)N[C@@H](CC(=O)c2ccccc2N)C(=O)O[C@@H]1C`, the MIC in experiment [1] is ≥ 32 µg/mL; in [2], 8 µg/mL; in experiment [3], ≥ 32 µg/mL; in experiment [4] it was ≥ 32 µg/mL; in [5], 16 µg/mL; in [6], ≥ 32 µg/mL. Moreover, the MIC in experiment [7] was 16 µg/mL; in experiment [8], ≥ 32 µg/mL; in experiment [9] it was ≥ 32 µg/mL.
As to `CCCCCCCCCC(=O)N[C@@H](Cc1c[nH]c2ccccc12)C(=O)N[C@@H](CC(N)=O)C(=O)N[C@@H](CC(=O)O)C(=O)N[C@@H]1C(=O)NCC(=O)N[C@@H](CCCN)C(=O)N[C@@H](CC(=O)O)C(=O)N[C@H](C)C(=O)N[C@@H](CC(=O)O)C(=O)N(C)CC(=O)N[C@H](CO)C(=O)N[C@@H]([C@@H](C)CC(=O)O)C(=O)N[C@@H](CC(=O)c2ccccc2N)C(=O)O[C@@H]1C`, the MIC in experiment [1], in [2], in [3], in experiment [4], in experiment [5] and in experiment [6] was ≥ 32 µg/mL in each case. Moreover, the MIC in [7], in experiment [8] and in [9] was ≥ 32 µg/mL throughout.
For the compound `CCCCCCCCCC(=O)N[C@@H](Cc1c[nH]c2ccccc12)C(=O)N[C@@H](C)C(=O)N[C@@H](CC(=O)O)C(=O)N[C@@H]1C(=O)NCC(=O)N[C@@H](CCCN)C(=O)N[C@@H](CC(=O)O)C(=O)N[C@H](C)C(=O)N[C@@H](CC(=O)O)C(=O)NCC(=O)N[C@H](CO)C(=O)N[C@@H]([C@@H](C)CC(=O)O)C(=O)N[C@@H](CC(=O)c2ccccc2N)C(=O)O[C@@H]1C`, the MIC in [1] is 32 µg/mL; in [2], 16 µg/mL; in experiment [3], 64 µg/mL; in experiment [4] it was ≥ 32 µg/mL; in experiment [5], ≥ 32 µg/mL; in experiment [6], ≥ 32 µg/mL. Besides, the MIC in experiment [7] was ≥ 32 µg/mL; in [8] it was 16 µg/mL; in experiment [9], 64 µg/mL.
Regarding `CCCCCCCCCC(=O)N[C@@H](Cc1c[nH]c2ccccc12)C(=O)N[C@@H](CC(N)=O)C(=O)N[C@@H](CC(=O)O)C(=O)N[C@@H]1C(=O)NCC(=O)N2CCC[C@H]2C(=O)N[C@@H](CC(=O)O)C(=O)N[C@H](C)C(=O)N[C@@H](CC(=O)O)C(=O)NCC(=O)N[C@H](CO)C(=O)N[C@@H]([C@@H](C)CC(=O)O)C(=O)N[C@@H](CC(=O)c2ccccc2N)C(=O)O[C@@H]1C`, the MIC in experiment [1], in experiment [2], in [3], in [4], in [5] and in [6] was ≥ 32 µg/mL each time. Further, the MIC in [7], in experiment [8] and in [9] was ≥ 32 µg/mL throughout.
On to `CCCCCCCCCC(=O)N[C@@H](Cc1c[nH]c2ccccc12)C(=O)N[C@@H](CC(N)=O)C(=O)N[C@@H](CC(=O)O)C(=O)N[C@@H]1C(=O)NCC(=O)N[C@@H]([C@@H](C)O)C(=O)N[C@@H](CC(=O)O)C(=O)N[C@H](C)C(=O)N[C@@H](CC(=O)O)C(=O)NCC(=O)N[C@H](CO)C(=O)N[C@@H]([C@@H](C)CC(=O)O)C(=O)N[C@@H](CC(=O)c2ccccc2N)C(=O)O[C@@H]1C`, for which the MIC in experiment [1] was ≥ 32 µg/mL; in experiment [2], 2 µg/mL; in experiment [3], ≥ 32 µg/mL; in [4] it was 16 µg/mL; in experiment [5] it was 2 µg/mL; in experiment [6] it was 16 µg/mL. In addition, the MIC in experiment [7] was 2 µg/mL; in experiment [8], ≥ 32 µg/mL; in experiment [9], ≥ 32 µg/mL.
`CCCCCCCCCC(=O)N[C@@H](Cc1c[nH]c2ccccc12)C(=O)N[C@@H](CC(N)=O)C(=O)N[C@@H](CC(=O)O)C(=O)N[C@@H]1C(=O)NCC(=O)N[C@@H](Cc2ccc(O)cc2)C(=O)N[C@@H](CC(=O)O)C(=O)N[C@H](C)C(=O)N[C@@H](CC(=O)O)C(=O)NCC(=O)N[C@H](CO)C(=O)N[C@@H]([C@@H](C)CC(=O)O)C(=O)N[C@@H](CC(=O)c2ccccc2N)C(=O)O[C@@H]1C`: the MIC is 16 µg/mL in experiment [1]; 4 µg/mL in experiment [2]; ≥ 32 µg/mL in experiment [3]; 0.5 µg/mL in experiment [4]; 1 µg/mL in experiment [5]; 1 µg/mL in experiment [6]. Also, the MIC was 4 µg/mL in experiment [7], ≥ 32 µg/mL in experiment [8] and ≥ 32 µg/mL in experiment [9].
Turning to `CCCCCCCCCC(=O)N[C@@H](Cc1c[nH]c2ccccc12)C(=O)N[C@@H](CC(N)=O)C(=O)N[C@@H](CC(=O)O)C(=O)N[C@@H]1C(=O)NCC(=O)N[C@@H](CCCN)C(=O)N[C@@H](CC(=O)O)C(=O)N[C@H](C)C(=O)N[C@@H](CC(=O)O)C(=O)NCC(=O)N[C@H](CO)C(=O)N[C@@H](C)C(=O)N[C@@H](CC(=O)c2ccccc2N)C(=O)O[C@@H]1C`, the MIC in [1], in [2], in experiment [3], in [4], in experiment [5] and in [6] was ≥ 64 µg/mL in each case. Moreover, the MIC in experiment [7], in experiment [8] and in [9] was ≥ 64 µg/mL each time.
Consider `CCCCCCCCCC(=O)N[C@@H](Cc1ccc(OC)cc1)C(=O)N[C@@H](CC(N)=O)C(=O)N[C@@H](CC(=O)O)C(=O)N[C@@H]1C(=O)NCC(=O)N[C@@H](CCCN)C(=O)N[C@@H](CC(=O)O)C(=O)N[C@H](C)C(=O)N[C@@H](CC(=O)O)C(=O)NCC(=O)N[C@H](CO)C(=O)N[C@@H]([C@@H](C)CC(=O)O)C(=O)N[C@@H](CC(=O)c2ccccc2N)C(=O)O[C@@H]1C`, for which the MIC is ≥ 32 µg/mL in experiment [1]; 2 µg/mL in experiment [2]; ≥ 32 µg/mL in experiment [3]; 4 µg/mL in experiment [4]; 2 µg/mL in experiment [5]; 16 µg/mL in [6]. For the same compound, the results for the MIC in [7], in [8] and in experiment [9] were 2 µg/mL, 8 µg/mL and ≥ 32 µg/mL, respectively.
